Results as given in patent US7388016B2, “Dibenzonaphthyridine derivatives and methods of use thereof” (Wyeth, priority 2005, dated 2008).

The compounds below were run against T1, PDK-1 (Homo sapiens, UniProt O15530) (assay: In vitro PDK-1 inhibition ELISA assay (phosphorylation of SGK1 on Threonine 256)). Conditions: PDK-1 phosphorylates 6xHIS tagged SGK1, 17 minutes reaction, chemiluminescent detection.
T1 sequence (O15530 1-556): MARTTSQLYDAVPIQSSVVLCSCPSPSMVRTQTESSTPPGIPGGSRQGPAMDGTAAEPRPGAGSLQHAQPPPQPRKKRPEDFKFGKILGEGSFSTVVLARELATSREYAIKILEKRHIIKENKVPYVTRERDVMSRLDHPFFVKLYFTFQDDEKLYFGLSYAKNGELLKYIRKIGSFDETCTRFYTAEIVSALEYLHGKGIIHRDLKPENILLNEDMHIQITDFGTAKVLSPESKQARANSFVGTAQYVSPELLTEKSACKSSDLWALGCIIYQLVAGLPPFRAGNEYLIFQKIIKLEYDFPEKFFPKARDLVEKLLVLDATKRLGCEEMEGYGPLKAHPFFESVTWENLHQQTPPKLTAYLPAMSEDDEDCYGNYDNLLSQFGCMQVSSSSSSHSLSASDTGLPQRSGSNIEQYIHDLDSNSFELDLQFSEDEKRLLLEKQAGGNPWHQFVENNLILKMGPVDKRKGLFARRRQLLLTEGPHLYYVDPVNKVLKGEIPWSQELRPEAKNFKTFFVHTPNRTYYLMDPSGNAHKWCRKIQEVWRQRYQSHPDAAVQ
Type: biochemical
Method: The ability of illustrative Dibenzonaphthyridine Derivatives to inhibit PDK-1 in vitro can be determined using the ELISA assay as decribed in Kobayashi et al., Biochem. J. 339:319-328 (1999) and Park et al., EMBO J. 18:3024-3033 (1999).
In this in vitro assay, PDK-1 kinase phosphorylates SGK1 on Threonine 256. After 17 minutes, the reaction is quenched via the addition of urea. The 6×HIS tagged SGK1 is then bound to 96 well Ni-NTA HisSorb plates and the phosphorylated SGK1 is detected using rabbit derived anti-phospho SGK antibody as the primary antibody and HRP coupled anti-rabbit antibody as the secondary antibody. HRP is then detected using a Chemiluminescent Substrate.

Row | Compound | IC50 [nM]
1 | COc1cc2c(cc1OCCCN1CCCCC1)ncc1c(N)nc3c(C)c(N)ccc3c12 [Ib-29, 11-methoxy-4-methyl-10-(3-piperidin-1-ylpropoxy)dibenzo[c,f]-2,7-naphthyridine-3,6-diamine] | 243
2 | COc1cc2c(cc1OCCN(C)CCN(C)C)ncc1c(N)nc3c(C)c(N)ccc3c12 [Ib-30, 10-{2-[[2-(dimethylamino)ethyl](methyl)amino]ethoxy}-11-methoxy-4-methyldibenzo[c,f]-2,7-naphthyridine-3,6-diamine] | 281
3 | COc1cc2c(cc1OCCc1c[nH]c3ccccc13)ncc1c(N)nc3c(C)c(N)ccc3c12 [Ib-31, 10-[2-(1H-indol-3-yl)ethoxy]-11-methoxy-4-methyldibenzo[c,f]-2,7-naphthyridine-3,6-diamine] | 539
4 | COc1cc2c(cc1OCCc1ccc(N(C)C)cc1)ncc1c(N)nc3c(C)c(N)ccc3c12 [Ib-32, 10-{2-[4-(dimethylamino)phenyl]ethoxy}-11-methoxy-4-methyldibenzo[c,f]-2,7-naphthyridine-3,6-diamine] | 667
5 | COc1cc2c(cc1OCCC1CCN(C)CC1)ncc1c(N)nc3c(C)c(N)ccc3c12 [Ib-33, 11-methoxy-4-methyl-10-[2-(1-methylpiperidin-4-yl)ethoxy]dibenzo[c,f]-2,7-naphthyridine-3,6-diamine] | 384
6 | COc1cc2c(cc1OCC1CCCN(C)C1)ncc1c(N)nc3c(C)c(N)ccc3c12 (centres unmarked) [Ib-34, 11-methoxy-4-methyl-10-[(1-methylpiperidin-3-yl)methoxy]dibenzo[c,f]-2,7-naphthyridine-3,6-diamine] | 1770
7 | COc1cc2c(cc1OCCCN1CCCC1=O)ncc1c(N)nc3c(C)c(N)ccc3c12 [Ib-35, 1-{3-[(7,10-diamino-2-methoxy-9-methyldibenzo[c,f]-2,7-naphthyridin-3-yl)oxy]propyl}pyrrolidin-2-one] | 111
8 | COc1cc2ncc3c(N)nc4c(C)c(N5C(=O)c6ccccc6C5=O)ccc4c3c2cc1OC [Ib-36, 2-(6-amino-10,11-dimethoxy-4-methyldibenzo[c,f]-2,7-naphthyridin-3-yl)-1H-isoindole-1,3(2H)-dione] | 1730
9 | COc1cc2ncc3c(N)nc4cc(N)ccc4c3c2cc1OC [Ib-38, 10,11-dimethoxydibenzo[c,f]-2,7-naphthyridine-3,6-diamine] | 670
10 | COc1cc2ncc3c(N)nc4c(C)cccc4c3c2cc1OC [Ib-39, 10,11-dimethoxy-4-methyldibenzo[c,f]-2,7-naphthyridin-6-amine] | 258
11 | COc1cc2c(cc1OCCC(C)C)ncc1c(N)nc3c(C)c(N)ccc3c12 [Ib-40, 11-methoxy-4-methyl-10-(3-methylbutoxy)dibenzo[c,f]-2,7-naphthyridine-3,6-diamine] | 1180
12 | COc1cc2c(cc1OCCC(C)(C)C)ncc1c(N)nc3c(C)c(N)ccc3c12 [Ib-41, 10-(3,3-dimethylbutoxy)-11-methoxy-4-methyldibenzo[c,f]-2,7-naphthyridine-3,6-diamine] | 6440
13 | COc1cc2c(cc1OCCCOCc1ccccc1)ncc1c(N)nc3c(C)c(N)ccc3c12 [Ib-42, 10-[3-(benzyloxy)propoxy]-11-methoxy-4-methyldibenzo[c,f]-2,7-naphthyridine-3,6-diamine] | 2440
14 | COc1cc2c(cc1OC[C@@H]1CCCN1Cc1ccccc1)ncc1c(N)nc3c(C)c(N)ccc3c12 [Ib-43, 10-{[(2S)-1-benzylpyrrolidin-2-yl]methoxy}-11-methoxy-4-methyldibenzo[c,f]-2,7-naphthyridine-3,6-diamine] | 2980
15 | COc1cc2c(cc1OC[C@@H]1CCCN1C[C@@H]1CCCN1C)ncc1c(N)nc3c(C)c(N)ccc3c12 [Ib-44, 11-methoxy-4-methyl-10-[((2S)-1-{[(2S)-1-methylpyrrolidin-2-yl]methyl}pyrrolidin-2-yl)methoxy]dibenzo[c,f]-2,7-naphthyridine-3,6-diamine] | 949
16 | COc1cc2c(cc1OCCC1CCCC1)ncc1c(N)nc3c(C)c(N)ccc3c12 [Ib-45, 10-(2-cyclopentylethoxy)-11-methoxy-4-methyldibenzo[c,f]-2,7-naphthyridine-3,6-diamine] | 4530
17 | COc1cc2c(cc1OCCC1CC1)ncc1c(N)nc3c(C)c(N)ccc3c12 [Ib-46, 10-(2-cyclopropylethoxy)-11-methoxy-4-methyldibenzo[c,f]-2,7-naphthyridine-3,6-diamine] | 212
18 | CCOCCOc1cc2ncc3c(N)nc4c(C)c(N)ccc4c3c2cc1OC [Ib-47, 10-(2-ethoxyethoxy)-11-methoxy-4-methyldibenzo[c,f]-2,7-naphthyridine-3,6-diamine] | 172
19 | COc1cc2c(cc1O)ncc1c(N)nc3c(C)c(N)ccc3c12 [Ib-48, 7,10-diamino-2-methoxy-9-methyldibenzo[c,f]-2,7-naphthyridin-3-ol] | 1370
20 | COc1cc2ncc3c(N)nc4c(C)c(Cl)ccc4c3c2cc1OC [Ib-49, 3-chloro-10,11-dimethoxy-4-methyldibenzo[c,f]-2,7-naphthyridin-6-amine] | 2220
21 | COc1cc2ncc3c(N)nc4c(C)c(O)ccc4c3c2cc1OC [Ib-50, 6-amino-10,11-dimethoxy-4-methyldibenzo[c,f]-2,7-naphthyridin-3-ol] | 46
22 | COc1cc2ncc3c(N)nc4c(C)c(OC)ccc4c3c2cc1OC [Ib-51, 3,10,11-trimethoxy-4-methyldibenzo[c,f]-2,7-naphthyridin-6-amine] | 48.7
23 | CNc1nc2c(C)c(N)ccc2c2c1cnc1cc(OC)c(OC)cc12 [Ic-1, 10,11-dimethoxy-N-6,4-dimethyldibenzo[c,f]-2,7-naphthyridine-3,6-diamine] | 36600
